US9115073B2, “1,3-diphenylpropane derivatives, preparations and uses thereof” (GENFIT, priority 2011, dated 2015)
Counter-ions that a name gives are not always drawn.

How the values were obtained:
hPPARalpha = target: T1, hPPARalpha (Homo sapiens, UniProt Q07869); experiment: Gal4-hPPARalpha transactivation assay in COS-7 cells (luciferase); format: cell-based; conditions: for Emax: COS-7, maximal relative activation vs reference, read-out: Gal4-hPPARα(LBD) TOP (% ref); for EC50: Gal4-hPPARα(LBD) transactivation
T1 construct: Gal4-hPPARα(LBD); Gal4 (fusion partner); expressed in transfected cells; host or cells: COS-7 (monkey kidney)
T1 sequence (Q07869 239-466 limits assumed): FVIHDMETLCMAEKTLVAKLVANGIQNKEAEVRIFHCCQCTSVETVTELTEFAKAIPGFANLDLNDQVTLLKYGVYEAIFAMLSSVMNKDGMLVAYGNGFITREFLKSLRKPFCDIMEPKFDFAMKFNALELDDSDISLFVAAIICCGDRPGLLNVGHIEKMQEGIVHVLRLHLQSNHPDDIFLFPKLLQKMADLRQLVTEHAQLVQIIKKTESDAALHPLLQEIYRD
Protocol: (§1) Monkey kidney COS-7 cells were maintained in standard culture conditions (Dulbecco's modified Eagle's minimal medium: DMEM) supplemented with 10% fetal calf serum, 1% sodium pyruvate, 1% essential amino acids and 1% antibiotics at 37° C. in a humidified atmosphere of 5% C02 and 95% air. The medium was changed every 2 days. All tested compounds were dissolved in DMSO. Cells were transfected using 2 μl JetPEI™ (Polyplus transfection)/μg of DNA. Briefly, 40 μg of DNA was transfected in a 225 cm^2 culture flask of adherent COS-7 cells (respecting the 1/50 ratio between the Gal4(RE)_TkpGL3 plasmid and the plasmid coding the nuclear receptor of interest (pGal4-hPPARalpha, pGal4-hPPARgamma, pGal4-hPPARdelta, pGal4-mPPARalpha, pGal4-mPPARgamma and pGal4-mPPARdelta) or of the pGal4phi plasmid (negative control). Cells were enzymatically detached and seeded in 384 well plates at the density of 20,000 cells/well and then incubated for 4 hours at 37° C. The activation was automatically performed, by using the Genesis Freedom 200™ (Tecan), in fresh medium supplemented with 2% of synthetic serum, free of lipids (Ultroser™, Biosepra) supplemented with the tested compounds (compound of interest or reference molecules) or vehicle (DMSO 0.1%). The luciferase activity was measured with the Steady-Glo Luciferase Assay System (Promega, Madison, Wis.). All transactivation experiments were performed at least 2 times. Activation curves were realized using SigmaPlot® (version 7.0 from SPSS Inc.) software and took into account all the experimental points. SimgaPlot® was also used to fit the standard curves and then determine the specific EC50 values, maximum effect versus reference molecules and Hill slope. The Emax effect of each new ligand is represented as the ratio of the maximal induction (plateau) obtained with the new ligand and the induction obtained with the corresponding reference compound. The reference compounds for PPARalpha, PPARgamma and PPARdelta were fenofibrate (100 μM), rosiglitazone (10 μM) and GW501516 (1 μM).

hPPARgamma = target: T2, hPPARgamma (Homo sapiens, UniProt P37231); experiment: Gal4-hPPARgamma transactivation assay in COS-7 cells (luciferase); format: cell-based; conditions: for Emax: COS-7, maximal relative activation vs reference, read-out: Gal4-hPPARγ(LBD) TOP (% ref); for EC50: Gal4-hPPARγ(LBD) transactivation; for Gal4-hPPARγ(LBD) TOP (% ref): maximal relative activation vs reference
T2 construct: Gal4-hPPARγ(LBD); Gal4 (fusion partner); expressed in transfected cells; host or cells: COS-7 (monkey kidney)
T2 sequence (P37231 238-503 limits assumed): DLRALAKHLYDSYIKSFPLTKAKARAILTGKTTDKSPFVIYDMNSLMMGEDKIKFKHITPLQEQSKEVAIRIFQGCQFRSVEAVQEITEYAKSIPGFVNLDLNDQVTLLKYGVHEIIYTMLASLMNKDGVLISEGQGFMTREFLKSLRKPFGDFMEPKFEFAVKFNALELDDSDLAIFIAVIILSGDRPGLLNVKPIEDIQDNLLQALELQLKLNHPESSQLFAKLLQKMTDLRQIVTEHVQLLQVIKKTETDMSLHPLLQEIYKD
Protocol: as §1

hPPARdelta = target: T3, hPPARdelta (Homo sapiens, UniProt Q03181); experiment: Gal4-hPPARdelta transactivation assay in COS-7 cells (luciferase); format: cell-based; conditions: for Emax: COS-7, maximal relative activation vs reference, read-out: Gal4-hPPARδ(LBD) TOP (% ref); for EC50: Gal4-hPPARδ(LBD) transactivation; for Gal4-hPPARδ(LBD) TOP (% ref): maximal relative activation vs reference
T3 construct: Gal4-hPPARδ(LBD); Gal4 (fusion partner); expressed in transfected cells; host or cells: COS-7 (monkey kidney)
T3 sequence (Q03181 211-439 limits assumed): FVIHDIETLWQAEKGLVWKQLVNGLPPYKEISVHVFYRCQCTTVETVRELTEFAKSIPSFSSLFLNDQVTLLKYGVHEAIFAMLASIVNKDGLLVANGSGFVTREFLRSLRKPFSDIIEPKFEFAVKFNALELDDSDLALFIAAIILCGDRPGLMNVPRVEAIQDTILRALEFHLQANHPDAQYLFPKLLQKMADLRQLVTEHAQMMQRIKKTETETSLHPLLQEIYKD
Protocol: as §1

Emax (hPPARalpha) | EC50 (hPPARalpha) | Emax (hPPARgamma) | EC50 (hPPARgamma) | EC50 (hPPARdelta) | SMILES | further results
44% | 0.239 µM | 68% | 0.044 µM | 0.04 µM | COC(c1ccc(Br)cc1)C1CC1c1cc(C)c(OC(C)(C)C(=O)O)c(C)c1 (racemic) [Cpd 1-1, 2-(4-(2-(methoxy(4-bromophenyl)methyl)cyclopropyl)-2,6-dimethylphenoxy)-2-methylpropanoic acid] | melting point: 133 °C; Emax (hPPARdelta): 84%
 |  |  |  |  | COC(c1ccc(OC(F)(F)F)cc1)C1CC1c1cc(C)c(OC(C)(C)C(=O)O)c(C)c1 (single isomer, unassigned) (as salt: TFA) [Cpd 14-1-1, 2-(4-(2-(methoxy(4-(trifluoromethoxy)phenyl)methyl)cyclopropyl)-2,6-dimethylphenoxy)-2-methylpropanoic acid] | melting point: 155 to 156 °C
 | 0.623 µM |  | 0.009 µM | 0.214 µM | COC(c1ccccc1OC(F)(F)F)C1CC1c1cc(C)c(OC(C)(C)C(=O)O)c(C)c1 (single isomer, unassigned) [Cpd 13-2, 2-(4-(2-(methoxy(2-(trifluoromethyloxy)phenyl)methyl)cyclopropyl)-2,6-dimethylphenoxy)-2-methylpropanoic acid] | 
60% | 0.032 µM |  | 0.025 µM | 0.007 µM | COC(c1ccc(OC(F)(F)F)cc1)C1CC1c1cc(C)c(OC(C)(C)C(=O)O)c(C)c1 (single isomer, unassigned) [Cpd 14-1, 2-(4-(2-(methoxy(4-(trifluoromethoxy)phenyl)methyl)cyclopropyl)-2,6-dimethylphenoxy)-2-methylpropanoic acid] | 
 | 0.211 µM |  | 0.081 µM | 0.027 µM | COC(c1ccc(OC(F)(F)F)cc1)C1CC1c1cc(C)c(OC(C)(C)C(=O)O)c(C)c1 (single isomer, unassigned) [Cpd 14-1-1, 2-(4-(2-(methoxy(4-(trifluoromethoxy)phenyl)methyl)cyclopropyl)-2,6-dimethylphenoxy)-2-methylpropanoic acid] | Gal4-hPPARα(LBD) TOP (% ref) (hPPARalpha; maximal relative activation vs reference, listed as cpd 14-1-1): 43 % ref; Gal4-hPPARγ(LBD) TOP (% ref) (hPPARgamma; listed as cpd 14-1-1): 78 % ref; Gal4-hPPARδ(LBD) TOP (% ref) (hPPARdelta; listed as cpd 14-1-1): 67 % ref
 | 0.041 µM |  | 0.017 µM | 0.03 µM | COC(c1ccc(OC(F)(F)F)cc1)C1CC1c1cc(C)c(OC(C)(C)C(=O)O)c(C)c1 (single isomer, unassigned) [Cpd 14-2, 2-(4-(2-(methoxy(4-(trifluoromethoxy)phenyl)methyl)cyclopropyl)-2,6-dimethylphenoxy)-2-methylpropanoic acid] | melting point: 190 to 194 °C
24% | 0.449 µM | 66% | 0.066 µM | 0.105 µM | COC(c1ccc(OC(F)(F)F)cc1)C1CC1c1ccc(OC(C)(C)C(=O)O)c(C(C)C)c1 (single isomer, unassigned) [Cpd 15-1, 2-(2-isopropyl-4-(2-(methoxy(4-(trifluoromethoxy)phenyl)methyl)cyclopropyl)phenoxy)-2-methylpropanoic acid] | Emax (hPPARdelta): 92%
 | 0.145 µM |  | 0.046 µM | 0.123 µM | COC(c1ccc(OC(F)(F)F)cc1)C1CC1c1ccc(OC(C)(C)C(=O)O)c(C(C)C)c1 (single isomer, unassigned) [Cpd 15-2, 2-(2-isopropyl-4-(2-(methoxy(4-(trifluoromethoxy)phenyl)methyl)cyclopropyl)phenoxy)-2-methylpropanoic acid] | 
40% | 0.108 µM | 80% | 0.014 µM | 0.044 µM | COC(c1ccc(C(F)(F)F)cc1C(F)(F)F)C1CC1c1cc(C)c(OC(C)(C)C(=O)O)c(C)c1 (single isomer, unassigned) [Cpd 16-1, 2-(4-(2-((2,4-bis(trifluoromethyl)phenyl)(methoxy)methyl)cyclopropyl)-2,6-dimethylphenoxy)-2-methylpropanoic acid] | Emax (hPPARdelta): 60%
 | 0.05 µM |  | 0.002 µM | 0.012 µM | COC(c1ccc(C(F)(F)F)cc1C(F)(F)F)C1CC1c1cc(C)c(OC(C)(C)C(=O)O)c(C)c1 (single isomer, unassigned) [Cpd 16-2, 2-(4-(2-((2,4-bis(trifluoromethyl)phenyl)(methoxy)methyl)cyclopropyl)-2,6-dimethylphenoxy)-2-methylpropanoic acid] | 
44% |  | 90% | 0.016 µM |  | COC(c1ccc(OC(F)(F)F)cc1)C1CC1c1cc(C)c(OC(C)(C)C(=O)O)c(C)c1 (centres unmarked) [Cpd 14-2-1, 2-(4-(2-(methoxy(4-(trifluoromethoxy)phenyl)methyl)cyclopropyl)-2,6-dimethylphenoxy)-2-methylpropanoic acid] | EC50 (hPPARalpha; listed as cpd 14-2-1): 0.05 µM; EC50 (hPPARdelta; listed as cpd 14-2-1): 0.019 µM; Gal4-hPPARδ(LBD) TOP (% ref) (hPPARdelta; listed as cpd 14-2-1): 78 % ref
 |  |  |  |  | COC(c1ccc(OC(F)(F)F)cc1)C1CC1c1cc(C)c(OC(C)(C)C(=O)O)c(C)c1 (centres unmarked) [Cpd 14-2-2, 2-(4-(2-(methoxy(4-(trifluoromethoxy)phenyl)methyl)cyclopropyl)-2,6-dimethylphenoxy)-2-methylpropanoic acid] | EC50 (hPPARalpha; listed as cpd 14-2-2): 0.017 µM; Gal4-hPPARγ(LBD) TOP (% ref) (hPPARgamma; listed as cpd 14-2-2): 72 % ref; EC50 (hPPARdelta; listed as cpd 14-2-2): 0.059 µM; Gal4-hPPARδ(LBD) TOP (% ref) (hPPARdelta; listed as cpd 14-2-2): 57 % ref
